Converted amounts (≈) assume the structure as drawn.
These molecules were tested on Bordetella bronchiseptica (assay: Minimum inhibitory concentration, Bordetella bronchiseptica). Conditions: not given.
Assay type: cell-based

Row | SMILES | MIC [µg/mL]
1 | COC(=O)NN=Cc1c(C(=O)N2CCOCC2)[n+]([O-])c2ccccc2[n+]1[O-] [Example 21] | 100 (≈ 266 µM)
2 | CCNC(=O)c1c(C=NO)[n+]([O-])c2ccccc2[n+]1[O-] [Example 22] | 100 (≈ 362 µM)
3 | CCCNC(=O)c1c(C=NO)[n+]([O-])c2ccccc2[n+]1[O-] [Example 23] | 100 (≈ 344 µM)
4 | CC(C)NC(=O)c1c(C=NO)[n+]([O-])c2ccccc2[n+]1[O-] [Example 24] | 100 (≈ 344 µM)

Each molecule was assayed on Mycobacterium species (assay: Minimum inhibitory concentration, Mycobacterium species). Conditions: not given.
Assay type: cell-based
Description: (§1) As representative of the spectrum of antimicrobial activity for these compounds, the following representative minimum inhibitory concentrations shown on Tables A, B and C can be noted: […]

Row | SMILES | MIC [µg/mL]
5 | COC(=O)NN=Cc1c(C(=O)N2CCOCC2)[n+]([O-])c2ccccc2[n+]1[O-] [Example 21] | 100 (≈ 266 µM)
6 | CCNC(=O)c1c(C=NO)[n+]([O-])c2ccccc2[n+]1[O-] [Example 22] | 100 (≈ 362 µM)
7 | CCCNC(=O)c1c(C=NO)[n+]([O-])c2ccccc2[n+]1[O-] [Example 23] | 100 (≈ 344 µM)
8 | CC(C)NC(=O)c1c(C=NO)[n+]([O-])c2ccccc2[n+]1[O-] [Example 24] | 100 (≈ 344 µM)

The molecules below were run on Mycoplasma S6 (assay: Minimum inhibitory concentration, Mycoplasma S6). Conditions: not given.
Assay type: cell-based

Row | SMILES | MIC [µg/mL]
9 | COC(=O)NN=Cc1c(C(=O)N2CCOCC2)[n+]([O-])c2ccccc2[n+]1[O-] [Example 21] | 1 (≈ 2.66 µM)
10 | CCNC(=O)c1c(C=NO)[n+]([O-])c2ccccc2[n+]1[O-] [Example 22] | 10 (≈ 36.2 µM)
11 | CCCNC(=O)c1c(C=NO)[n+]([O-])c2ccccc2[n+]1[O-] [Example 23] | 100 (≈ 344 µM)
12 | CC(C)NC(=O)c1c(C=NO)[n+]([O-])c2ccccc2[n+]1[O-] [Example 24] | 100 (≈ 344 µM)

The molecules below were run on Alcaligenes faecalis ATCC (assay: Minimum inhibitory concentration, Alcaligenes faecalis ATCC). Conditions: not given.
Assay type: cell-based

Row | SMILES | MIC [µg/mL]
13 | COC(=O)NN=Cc1c(C(=O)N2CCOCC2)[n+]([O-])c2ccccc2[n+]1[O-] [Example 21] | 100 (≈ 266 µM)
14 | CCNC(=O)c1c(C=NO)[n+]([O-])c2ccccc2[n+]1[O-] [Example 22] | 100 (≈ 362 µM)
15 | CCCNC(=O)c1c(C=NO)[n+]([O-])c2ccccc2[n+]1[O-] [Example 23] | 100 (≈ 344 µM)
16 | CC(C)NC(=O)c1c(C=NO)[n+]([O-])c2ccccc2[n+]1[O-] [Example 24] | 100 (≈ 344 µM)

Each molecule was assayed on Aeromonas liquefaciens (assay: Minimum inhibitory concentration, Aeromonas liquefaciens). Conditions: Aeromonas hydrophila.
Assay type: cell-based

Row | SMILES | MIC [µg/mL]
17 | COC(=O)NN=Cc1c(C(=O)N2CCOCC2)[n+]([O-])c2ccccc2[n+]1[O-] [Example 21] | 1 (≈ 2.66 µM)
18 | CCNC(=O)c1c(C=NO)[n+]([O-])c2ccccc2[n+]1[O-] [Example 22] | 0.1 (≈ 0.362 µM)
19 | CCCNC(=O)c1c(C=NO)[n+]([O-])c2ccccc2[n+]1[O-] [Example 23] | 100 (≈ 344 µM)
20 | CC(C)NC(=O)c1c(C=NO)[n+]([O-])c2ccccc2[n+]1[O-] [Example 24] | 100 (≈ 344 µM)

These molecules were tested on Clostridium tetani (assay: microbe, parasite or virus in culture). Conditions: read-out: minimum inhibitory concentration.
Assay type: cell-based

Row | SMILES | MIC [µg/mL]
21 | COC(=O)NN=Cc1c(C(=O)N2CCOCC2)[n+]([O-])c2ccccc2[n+]1[O-] [Example 21] | 100 (≈ 266 µM)
22 | CCNC(=O)c1c(C=NO)[n+]([O-])c2ccccc2[n+]1[O-] [Example 22] | 100 (≈ 362 µM)
23 | CCCNC(=O)c1c(C=NO)[n+]([O-])c2ccccc2[n+]1[O-] [Example 23] | 100 (≈ 344 µM)
24 | CC(C)NC(=O)c1c(C=NO)[n+]([O-])c2ccccc2[n+]1[O-] [Example 24] | 100 (≈ 344 µM)

The molecules below were run on Mycoplasma gran (assay: Minimum inhibitory concentration, Mycoplasma gran). Conditions: not given.
Assay type: cell-based

Row | SMILES | MIC [µg/mL]
25 | COC(=O)NN=Cc1c(C(=O)N2CCOCC2)[n+]([O-])c2ccccc2[n+]1[O-] [Example 21] | 0.1 (≈ 0.266 µM)
26 | CCNC(=O)c1c(C=NO)[n+]([O-])c2ccccc2[n+]1[O-] [Example 22] | 10 (≈ 36.2 µM)
27 | CCCNC(=O)c1c(C=NO)[n+]([O-])c2ccccc2[n+]1[O-] [Example 23] | 1 (≈ 3.44 µM)
28 | CC(C)NC(=O)c1c(C=NO)[n+]([O-])c2ccccc2[n+]1[O-] [Example 24] | 1 (≈ 3.44 µM)

Each molecule was assayed on Mycoplasma MS (assay: Minimum inhibitory concentration, Mycoplasma MS). Conditions: not given.
Assay type: cell-based
Description: as §1

Row | SMILES | MIC [µg/mL]
29 | COC(=O)NN=Cc1c(C(=O)N2CCOCC2)[n+]([O-])c2ccccc2[n+]1[O-] [Example 21] | 10 (≈ 26.6 µM)
30 | CCNC(=O)c1c(C=NO)[n+]([O-])c2ccccc2[n+]1[O-] [Example 22] | 100 (≈ 362 µM)
31 | CCCNC(=O)c1c(C=NO)[n+]([O-])c2ccccc2[n+]1[O-] [Example 23] | 100 (≈ 344 µM)
32 | CC(C)NC(=O)c1c(C=NO)[n+]([O-])c2ccccc2[n+]1[O-] [Example 24] | 100 (≈ 344 µM)

The molecules below were run on Pasteurella multocida ATCC (assay: Minimum inhibitory concentration, Pasteurella multocida ATCC). Conditions: not given.
Assay type: cell-based

Row | SMILES | MIC [µg/mL]
33 | COC(=O)NN=Cc1c(C(=O)N2CCOCC2)[n+]([O-])c2ccccc2[n+]1[O-] [Example 21] | 10 (≈ 26.6 µM)
34 | CCNC(=O)c1c(C=NO)[n+]([O-])c2ccccc2[n+]1[O-] [Example 22] | 10 (≈ 36.2 µM)
35 | CCCNC(=O)c1c(C=NO)[n+]([O-])c2ccccc2[n+]1[O-] [Example 23] | 100 (≈ 344 µM)
36 | CC(C)NC(=O)c1c(C=NO)[n+]([O-])c2ccccc2[n+]1[O-] [Example 24] | 100 (≈ 344 µM)

These molecules were tested on Clostridium botulinum (assay: microbe, parasite or virus in culture). Conditions: read-out: minimum inhibitory concentration.
Assay type: cell-based

Row | SMILES | MIC [µg/mL]
37 | COC(=O)NN=Cc1c(C(=O)N2CCOCC2)[n+]([O-])c2ccccc2[n+]1[O-] [Example 21] | 1 (≈ 2.66 µM)
38 | CCNC(=O)c1c(C=NO)[n+]([O-])c2ccccc2[n+]1[O-] [Example 22] | 1 (≈ 3.62 µM)
39 | CCCNC(=O)c1c(C=NO)[n+]([O-])c2ccccc2[n+]1[O-] [Example 23] | 1 (≈ 3.44 µM)
40 | CC(C)NC(=O)c1c(C=NO)[n+]([O-])c2ccccc2[n+]1[O-] [Example 24] | 1 (≈ 3.44 µM)

Source: patent US3957987A, “Compositions containing a carbonamidoquinoxaline-di-N-oxide and method of using same” (Bayer Aktiengesellschaft, priority 1971, dated 1976)
